Reference: patent publication US6440972B1, “Heterocyclic compounds useful as oxido-squalene cyclase inhibitors” (Zeneca Limited, priority 1997, dated 2002)

Columns and labels:
[1] = target: T1, microsomal oxido-squalene cyclase (Rattus norvegicus, UniProt P48450); experiment: In vitro test to measure inhibition of oxido-squalene cyclase (rat liver microsomes); type: biochemical; details: concentration of 0.01 μM
T1 construct: Microsomes are prepared from rat liver according to methods known in the art; from tissue; host or cells: rat liver microsomes
T1 sequence (P48450 1-733): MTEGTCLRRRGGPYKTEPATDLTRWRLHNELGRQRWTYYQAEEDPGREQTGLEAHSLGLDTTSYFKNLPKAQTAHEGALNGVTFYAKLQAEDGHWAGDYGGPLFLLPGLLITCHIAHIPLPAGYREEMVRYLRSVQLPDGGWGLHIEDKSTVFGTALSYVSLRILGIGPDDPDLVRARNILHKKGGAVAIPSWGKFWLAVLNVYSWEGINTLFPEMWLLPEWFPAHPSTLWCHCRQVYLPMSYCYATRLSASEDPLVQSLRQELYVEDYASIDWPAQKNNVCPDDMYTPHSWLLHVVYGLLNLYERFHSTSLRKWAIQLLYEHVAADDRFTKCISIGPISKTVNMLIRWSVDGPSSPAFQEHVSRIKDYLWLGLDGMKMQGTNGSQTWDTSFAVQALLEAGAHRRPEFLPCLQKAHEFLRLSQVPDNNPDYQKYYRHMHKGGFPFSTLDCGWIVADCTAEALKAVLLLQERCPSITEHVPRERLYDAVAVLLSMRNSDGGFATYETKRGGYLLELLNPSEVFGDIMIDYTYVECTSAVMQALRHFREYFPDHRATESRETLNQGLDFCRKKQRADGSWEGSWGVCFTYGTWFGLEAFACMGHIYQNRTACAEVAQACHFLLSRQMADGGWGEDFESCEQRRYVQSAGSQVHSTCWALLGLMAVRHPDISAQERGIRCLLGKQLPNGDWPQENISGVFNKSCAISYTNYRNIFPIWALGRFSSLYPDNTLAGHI
Protocol: (a) In vitro Test to Measure Inhibition of Oxido-squalene Cyclase
This test measures the inhibition of microsomal oxido-squalene cyclase in vitro by compounds at set concentrations in the incubation medium.
Microsomes are prepared from rat liver according to methods known in the art, for example, the method described in published European Patent Application No 324,421 and stored in liquid nitrogen prior to assay. Assay vials are kept at 37° C. throughout the incubation. The microsomes typically contain 15-20 mg of protein per ml of microsomes. For the assay, 1 ml of microsomes are diluted by the addition of 722 μl of 50 mM phosphate buffer pH 7.4.
Phosphate buffered Tween® 80 (polyoxyethylene sorbitan […]) is prepared by adding 0.1 g Tween® 80 to 100 ml of 50 mM phosphate buffer.
A stock solution of oxido-squalene is made up as a solution in ethanol (0.65 mg.ml.^−1). 18 μl of radio-labelled oxido-squalene (1 μCi.ml^−1) is evaporated to dryness under a stream of nitrogen and redissolved in 1 ml of ethanol and 1 ml of the stock solution of oxido-squalene is added.
The test compound is dissolved in dimethyl sulphoxide to give a 10^−1M stock solution. […]
The samples are then placed in a water bath at 80° C. for 2 hours to saponify. […] Reaction rate is measured as the conversion of oxido-squalene to lanosterol, and the effects of test compounds are expressed as an inhibition of this process.

cholesterol biosynthesis = experiment: In vivo test to measure inhibition of oxido-squalene cyclase / cholesterol biosynthesis in the rat; details: dosed at 2 mg.kg^−1, oral, rat liver
Protocol: (b) In vivo Test to Measure Inhibition of Oxido-squalene Cyclase
The ability of a compound to inhibit oxido-squalene cyclase and/or inhibit cholesterol biosynthesis may be assessed by a routine laboratory procedure carried out in the rat. The test involves administration of the compound to rats on a reversed lighting regimen. Female rats (35-55 g) are housed in reverse lighting conditions (red light from 0200 h-[…]) for a period of about 2 weeks prior to test. Animals are allowed free access to chow and drinking water throughout this period. At test, animals should weigh 100-140 g. The rats are dosed orally with the compound (typically 10-50 mg/kg) formulated in a polyethylene glycol/hydroxypropylmethyl cellulose mix. After 1 hour the rats are given triturated sodium mevalonate (15 μCi.kg^−1) intraperitoneally. Two hours after administration of the compound the rats are terminated and a piece of liver removed and weighed. The tissue is saponified at 80° C. for 2 hours in an ethanolic/potassium hydroxide solution (80% w/v aqueous KOH diluted 1:10 with ethanol). Water (2 ml) is added and the mixture extracted with iso-hexane (2×5 ml). The organic extracts are combined, evaporated to dryness under a stream of nitrogen and the residue is dissolved in a mixture of acetonitrile/iso-propanol (300 μl). […] The radio-label content of each fraction is assessed using a radio chemical flow detector. […]

Row | SMILES | melting point | inhibition of rat microsomal oxido-squalene cyclase [1] | inhibition of rat cholesterol biosynthesis (cholesterol biosynthesis)
1 | O=C(C1CCN(c2ccncc2F)CC1)N1CCN(S(=O)(=O)c2ccc(Br)cc2)CC1 | 192 °C |  | 
2 | O=C(C1CCN(c2ccncc2Cl)CC1)N1CCN(S(=O)(=O)c2ccc(Br)cc2)CC1 [Example 1] |  | about 79% | about 79%
